{"source": "patent US20200188266A1", "about": "“Oral Care Compositions and Methods of Use” (priority 2017, published 2020)", "origin": "cited, not measured here", "conditions": "DI water at about 35° C.", "data": [{"compound": "CC(=O)c1c(O)c(C)c(O)c2c1OC1=CC(=O)C(C(C)=O)C(=O)C12C", "note": "(stereo not shown) [usnic acid]", "values": [{"measurement": "solubility", "result": "about 6.3 ppm"}]}]}
